The test system of series [1] is local anesthesia from 2% polocaine (mepivacaine hydrochloride) with levonordefrin in healthy, male human subjects. Put plainly: Human subjects study of local anesthesia reversal by LARA versus saline vehicle (bilateral injections). The class given is in vivo. To be noted: three subjects; 0.05 mg/ml phentolamine-mesylate, 1.6 ml (0.08 mg). The protocol: An injection of the physiological saline vehicle (without phentolamine-mesylate) served as the control. […] This was followed by injection of the phentolamine-mesylate containing local anesthetic reversal agent (LARA) into one side of the oral cavity, and injection of the saline vehicle (control) solution into the opposite side of the oral cavity. The time to reversal of the local anesthetic effect on both sides was then recorded to determine whether there is a difference between the two sides.
The local anesthetic used was 2% polocaine (mepivacaine hydrochloride) with levonordefrin (1:20,000=0.05 mg/ml) (levonordefrin injection, USP) (Astra USA, Inc., Westborough, Mass. 01581). Levonordefrin is a sympathomimetic amine with a pharmacological profile similar to that of epinephrine, but with a lower potency.
Three healthy, male human subjects, age 34-50, volunteered to have local anesthetic injected in the mouth bilaterally under the lip in an easily repeatable location. The exact time of each injection was recorded. The position chosen was above (apical) the prominence of the root of the upper cuspid teeth. This is a common site selected to numb the cuspids, lateral incisors and upper lip. The volume of the local anesthetic injected was 1.7+0.1 ml on each side of the mouth. […]

Series [2] deals with patients pretreated with lignocaine admixed with epinephrine. To be noted: 0.5-1.5 mg; '714 patent Example 1, Table 1; cited from earlier work.
A further series relates to patients. The following applies: systemic doses; usually in association with marked hypotensive episodes; cited from earlier work.

“Also recorded” adds a separate entry of the source. Structures can show the parent of a compound that is named as a salt.

As to `Cc1ccc(N(CC2=NCCN2)c2cccc(O)c2)cc1` [phentolamine-mesylate, phentolamine mesylate], in series [1], the “local anesthesia reversal compared to saline side (in words)” value is “highly effective anesthesia reversal” and the side-effects entry is on record as “no side-effects of any kind were noted; also recorded: without any side-effects whatsoever”.
As to `Cc1ccc(N(CC2=NCCN2)c2cccc(O)c2)cc1` [phentolamine], the duration of anesthesia result in series [2] is reported as “reduction in the duration of anesthesia with increasing amounts”. Also, in the series on patients, the “side effects reported following administration” value is “Myocardial infarction, cerebrovascular spasm, and cerebrovascular occlusion have been reported”.

These data come from patent publication US7261889B2, “Local anesthetic methods and kits” (Novalar Pharmaceuticals, Inc., priority 2000, dated 2007).
